Results taken from paper PMC7179259, “Safety, Tolerability, Pharmacokinetics, and Antimalarial Activity of the Novel Plasmodium Phosphatidylinositol 4-Kinase Inhibitor MMV390048 in Healthy Volunteers” (Antimicrobial Agents and Chemotherapy, 2020).

Key:
P. falciparum 3D7 = assay: Induced blood-stage malaria (IBSM) study: antimalarial activity (parasitemia by qPCR); assay type: in vivo, Plasmodium falciparum; details: 20 mg single dose
Procedure: (ii) IBSM study. The dose of MMV390048 chosen (20 mg) was based on the pharmacokinetic, safety, and tolerability data available from the first-in-human study at the time the IBSM study commenced (when 5- and 20-mg-dose cohorts of the first-in-human study had been completed). This dose was below the estimated single dose required to achieve complete cure calculated from preclinical studies (80 to 100 mg) since recrudescence allows for characterization of the pharmacokinetic/pharmacodynamic relationship between MMV390048 and P. falciparum parasitemia. Subjects were inoculated intravenously on day 0 with erythrocytes infected with ∼1,800 viable chloroquine-sensitive P. falciparum 3D7 parasites ([17]). Fasted (≥8 h) subjects were dosed with MMV390048 when they reached the parasitemia threshold for treatment (∼1,000 parasites ml^−1) and were followed up until the end-of-study visit on day 28.
Parasitemia was monitored by collecting blood samples and performing quantitative PCR (qPCR) targeting the gene encoding P. falciparum 18S rRNA ([20]). Blood samples were collected daily from day 4 until parasites were detectable; twice daily until MMV390048 dosing; before MMV390048 dosing and 2, 4, 8, 12, 16, 20, 24, 30, 36, 48, 60, and 72 h after MMV390048 dosing; twice daily until parasitemia was not detected over a 48-h period; 3 times per week until artemether-lumefantrine treatment; and then at the end of the study (day 28).

[1] = Stability in human plasma and whole blood (bioanalytical validation); assay type: in vitro ADME
Text: page 28: Determination of MMV390048 from 50 µ L human plasma by LC -MS/MS A method was validated for the quantification of MMV390048 in human plasma, and consisted of a protein precipitation extraction, followed by high performance liquid chromatography with MS/MS detection. MMV390048- d3 was used as the internal standard. Analyte mean extraction yield was approximately 106.5 % (CV% = 6.2). The extraction procedure was followed by liquid chromatographic separation using a Waters Atlantis T3 3 μm, 100 x 2.1 mm analytical column. An isocratic mobile phase containing water:acetonitrile (25:75 [v/v]) was used at a flow-rate of 300 μL/min. The retention times for MMV390048 and MMV390048- d3 were 1.16 min and 1.16 min, respectively. An AB Sciex API 4000 mass spectrometer at unit resolution in the multiple reaction monitoring mode was used to monitor the transition of the protonated precursor ions, 394.145 m/z and 397.148 m/z, to the product ions, 297.0 m/z and 297.0 m/z, for MMV390048 and the internal standard, respectively. Electro -spray ionisation was used for ion production. Accuracy and precision were assessed over three consecutive, independent runs. The calibration curve fits a quadratic (weighted by 1/x) regressions for MMV390048 over the ranges 0.500 –2000 ng/mL, based on peak area ratios. The assay was successfully cross- validated on a second/back- up API 4000 instrument. […] Stock solutions of MMV390048 in dimethylsulfoxide was stable for 67 days when stored at -80°C and for 24 hours when stored at room temperature, 4°C and - 20°C. […] Samples with haemolysis greater than 1% were assayed in duplicate to confirm results.

rats = tested on: rats; set-up: method as in not given; details: preclinical toxicology studies in rats; ref not given; cited from earlier work

## CS(=O)(=O)c1ccc(-c2cnc(N)c(-c3ccc(C(F)(F)F)nc3)c2)cc1 [MMV390048]
P. falciparum 3D7; n = 2 subjects (highest exposure)
  time to recrudescence after MMV390048 dosing: 7 days
P. falciparum 3D7; n = 4 subjects
  time to recrudescence after MMV390048 dosing: 2 days
P. falciparum 3D7; n = 6
  parasitemia following administration: decreased initially in all subjects
  recrudescence: observed in all subjects
[1]; freeze-thaw cycles
  stable in human plasma when subjected to freeze-thaw cycles: 3
[1]; on ice
  stable in whole blood for up to: 1 h
[1]; room temperature
  stable in human plasma for: 6 h
[1]; stored at approximately -80°C
  stable in human plasma for up to: 79 days
rats
  testicular toxicity: testicular toxicity was observed
